From patent publication US20160103122A1, “METHOD FOR THE CREATION OF A DATABASE FOR INITIAL ASSESSMENT OF THE EFFECTIVENESS OF ACTIVE AGENTS IN TUMOR THERAPY” (FLACOD GMBH, priority 2013, published 2016)
Where “and” joins values, the source holds several entries; their conditions need not be identical. Identical values can stand only once. Like-named read-outs stand apart in the source and are kept apart here.

Assays:
[1] = tested on: bronchial carcinoma (lung cancer); experiment: Therapy outcome of chemotherapy in patients, assessed by computer tomography after two to three cycles; type: in vivo, human; set-up: key: PR=partial response (i.e. the carcinoma has become detectably smaller); NC=“No Change”=zero growth of the carcinoma; Progress=the carcinoma has continued to grow, no therapeutic success; conditions: patient tumor ID 282, NSCLC/St. IV; without platinum derivatives
Text: The therapy outcome, namely the change or the state of the tumor after two to three cycles of treatment compared to the state before the start of treatment, has been analyzes by computer tomography and classified on the basis of the “standard”—rating scale known and conventional in the art as class I=complete remission (CR), class II=partial remission (PR), class III=zero growth (“no change”, NC) and class IV=Progress (progressive tumor growth). The therapy outcomes achieved are shown in table 1, column 5 and in table 2 in column 3 of each group (1 to 4).

[2] = tested on: tumor cells of lung cancer (bronchial carcinoma) tissue samples; experiment: Chemosensitivity test (IC50 determination) by colony formation in tumor digests ex vivo; type: cell-based, human
Protocol: Parts of freshly (under general anesthesia of the patient) taken (here biopsied) lung cancer (bronchial carcinoma) tissue were transported to the laboratory and processed immediately for IC50 determination.
The transport to the laboratory should take place in chilled culture medium. For this purpose in particular HEPES- and NaHCO3-buffered, preferably flavin-free RPMI 1640 culture medium containing 10% fetal bovine serum, 100 IU/mL penicillin G, 100 ug/mL streptomycin, 20 μg/mL Amikacin (as antibiotics) and […] Voriconazole (as an antifungal agent) are suitable.
In the laboratory, this tumor tissue samples were cleaned, weighed, minced and suspended in culture medium.
For this purpose in particular the method according to DE 102012003700 B3 is suitable, wherein about 5.5 mg tumor tissue sample per 1 mL of culture medium are subjected to enzymatic digestion with collagenase, preferably by using Clostridium histolytikum collagenase (Sigma, 230 CDU/mL), in a Petri dish under standard conditions in a gassing incubator (36-37° C., 3.5% CO2 in water vapor saturated air) for 4-5 hours.
Following the collagenase digestion, the digestion product is centrifuged at 50×g, the supernatant is discarded and the pellet is resuspended in 1 mL of fresh culture medium. With this resuspension—hereinafter referred to as “tumor digest”—the chemosensitivity test (IC50 determination) is performed
The thus prepared culture plates were pre-incubated for about 1 hour under standard conditions (i.e.: gassing incubator; 36-37° C.; 3.5% CO2 in water vapor saturated air). Subsequently, 150 μl tumor digest were added to these pre-incubated wells, they were incubated for 72 hours under standard conditions (see above), and then analyzed microscopically.
After the end of incubation, in all tumor digest test preparations the culture medium was removed, and the existing cell colonies were rinsed with phosphate buffered saline (PBS) and drained. Subsequently, the cells were fixed with methanol at minus (−) 25° C. for 5 to 10 minutes and then subjected to Giemsa staining according to Gurr.

[3] = tested on: lung adenocarcinoma cell strain A240286S; experiment: Verification test of cisplatin concentrations by IC50 determination (cell counting); type: cell-based, human; conditions: 72 hours; 15 evaluable test preparations; read-out: IC50-values of A240286S cells in the verification tests, average
Protocol: The final concentration gradients were pre-incubated for approximately 30 minutes under standard conditions (see above). […] The culture plate was then incubated, in parallel with the culture plate fitted with the tumor digests, for 72 hours under standard conditions. In the batches of the verification test (with the cells of the lung adenocarcinoma cell strain A240286S) the culture medium was decanted after the end of incubation. The present cellular layers were rinsed with PBS, drained and then removed from the culture vessel with Accutase. The cells were isolated by passing them through a blunt cannula no. 20. Using a cell-counting-and-analyzing apparatus (here the Casy I Cell Analyzer from Roche, Basel), the cell density was determined for each test batch and reduced by the inoculum.

Nc1ccn([C@@H]2O[C@H](CO)[C@@H](O)C2(F)F)c(=O)n1 [Gemcitabine]
Therapy outcome [1]: Progress

N.N.[Cl][Pt][Cl] [cisplatin]
IC50 ([2]; Group 1 (IC50 < 5 μM), 3 tumor samples, read-out: IC50 mean value): 3.64 µM | IC50 ([2]; Group 2 (IC50 ≧ 5 < 8 μM), 7 tumor samples, read-out: IC50 mean value): 6.73 µM and 6.72 µM | IC50 ([2]; Group 3 (IC50 ≧ 8 bis 25.6 μM), 5 tumor samples, read-out: IC50 mean value): 21.1 µM | IC50 ([2]; tumor sample ID 220, SCLC/St. IV, 72 hours, colonies of epithelial tumor cells, read-out: IC50): 2.6 µM | IC50 ([2]; tumor sample ID 221, NSCLC/St. IV, 72 hours, read-out: IC50): 7.77 µM | IC50 ([2]; tumor sample ID 228, NSCLC/St. IV, 72 hours, read-out: IC50): > 26 µM | IC50 ([2]; tumor sample ID 233, NSCLC/St. IV, 72 hours, read-out: IC50): > 26 µM | IC50 ([2]; tumor sample ID 245, NSCLC/St. IV, 72 hours, read-out: IC50): 7.74 µM | IC50 ([2]; tumor sample ID 255, SCLC/St. IV, 72 hours, read-out: IC50): 4.58 µM | IC50 ([2]; tumor sample ID 258, NSCLC/St. IV, 72 hours, read-out: IC50): 16.7 µM | IC50 ([2]; tumor sample ID 260, NSCLC/St. IIIb, 72 hours, read-out: IC50): 5.61 µM | IC50 ([2]; tumor sample ID 272, SCLC/St. IV, 72 hours, read-out: IC50): 21 µM | IC50 ([2]; tumor sample ID 275, NSCLC/St. IV, 72 hours, read-out: IC50): 5.38 µM | IC50 ([2]; tumor sample ID 277, NSCLC/St. IIIa, 72 hours, read-out: IC50): 7.58 µM | IC50 ([2]; tumor sample ID 278, NSCLC/St. IV (adenocarcinoma), 72 hours, read-out: IC50): 5.25 µM | IC50 ([2]; tumor sample ID 279, NSCLC/St. IV (squamous cell carcinoma), 72 hours, read-out: IC50): 3.73 µM | IC50 ([2]; tumor sample ID 282, NSCLC/St. IV, 72 hours, read-out: IC50): 14.8 µM | IC50 ([2]; tumor sample ID 294, NSCLC/St. IV, 72 hours, read-out: IC50): 7.7 µM | IC50 ([2]; tumor sample ID 297, NSCLC/St. IV, 72 hours, read-out: IC50): 25.6 µM | IC50 ([2]; tumor sample ID 311, NSCLC/KI. IIIb, 72 hours, read-out: IC50): 22.1 µM | IC50 ([2]; tumor sample ID 314, NSCLC/KI. IV, 72 hours, read-out: IC50): 20.5 µM | IC50 [3]: 1.2 µM
